Measured values: the supplement of paper PMC7840683
Structures can show the parent of a compound that is named as a salt. ± gives the standard deviation of the averaged measurements.

Test system: HepaRG
Test: LDH release cytotoxicity, % of total lysis control; higher = more cytotoxic
Settings: 48 h
In short: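 On collagen I-coated 96-well plates, single-lot HepaRG cells were exposed for 48 h, in duplicate, to eight-point half-log series of test chemicals beginning at 100 µM. The exposure medium was serum-free induction medium with 0.5% DMSO, and total lysis wells got 0.1% Triton X. Resorufin fluorescence from the CytoTox-ONE reaction, read on a Tecan Safire, reported LDH in 50 µL of spent medium. Percent cytotoxicity came from normalization to on-plate vehicle and total lysis controls, averaged over the duplicates.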

| SMILES | LDH release cytotoxicity (0.03162 µM) | LDH release cytotoxicity (0.1 µM) | LDH release cytotoxicity (0.3162278 µM) | LDH release cytotoxicity (1 µM) | LDH release cytotoxicity (3.16228 µM) | LDH release cytotoxicity (10 µM) | LDH release cytotoxicity (31.6228 µM) | LDH release cytotoxicity (100 µM) | LDH release cytotoxicity (0.031623 µM) | LDH release cytotoxicity (0.316228 µM) | LDH release cytotoxicity (0.0322552 µM) | LDH release cytotoxicity (0.102 µM) | LDH release cytotoxicity (0.322552 µM) | LDH release cytotoxicity (1.02 µM) | LDH release cytotoxicity (3.2255232 µM) | LDH release cytotoxicity (10.2 µM) | LDH release cytotoxicity (32.2552 µM) | LDH release cytotoxicity (102 µM) |
| --- | --- | --- | --- | --- | --- | --- | --- | --- | --- | --- | --- | --- | --- | --- | --- | --- | --- | --- |
| CC(C)(C)C(O)C(Oc1ccc(Cl)cc1)n1cncn1 (centres undefined) [Triadimenol] | -1.62 ± 0.58% | -2.06 ± 0.53% | -1.64 ± 1.5% | -1.25 ± 0.42% | -1.3 ± 0.73% | -0.0607 ± 0.57% | -0.253 ± 0.65% | 0.57 ± 0.18% | – | – | – | – | – | – | – | – | – | – |
| CC12C=CC(=O)C=C1CCC1C3CC(O)C(O)(C(=O)CO)C3(C)CC(O)C12F (centres undefined) [Triamcinolone] | -1.85 ± 0.34% | -0.492 ± 0.35% | -1.39 ± 0.53% | -1.34 ± 0.22% | -0.853 ± 0.06% | -0.509 ± 0.53% | -0.546 ± 0.2% | 2.9 ± 0.79% | – | – | – | – | – | – | – | – | – | – |
| CCCCSP(=O)(SCCCC)SCCCC [Tribufos] | -1.39 ± 0.84% | -0.774 ± 0.82% | -1.31 ± 0.24% | -1.25 ± 0.2% | -0.815 ± 0.25% | -0.0795 ± 0.058% | -0.648 ± 0.29% | 0.564 ± 0.25% | – | – | – | – | – | – | – | – | – | – |
| CCCCN(CCCC)CCCC [Tributylamine] | -2.12 ± 0.98% | -1.33 ± 1.8% | -2.67 ± 0.73% | -2.57 ± 1% | -2.21 ± 0.52% | -2.383 ± 0.0034% | -2.97 ± 0.18% | 3.29 ± 1.9% | – | – | – | – | – | – | – | – | – | – |
| CCC[CH2][Sn]([Cl])([CH2]CCC)[CH2]CCC [Tributyltin chloride] | – | -3.6 ± 1.2% | – | -2.91 ± 0.74% | -3.46 ± 0.11% | -2.765 ± 0.018% | -1.81 ± 0.11% | 0.00684 ± 1.1% | 0.564 ± 1.9% | -2.2 ± 0.71% | – | – | – | – | – | – | – | – |
| C=C(C)C(=O)[O][Sn]([CH2]CCC)([CH2]CCC)[CH2]CCC [Tributyltin methacrylate] | -1.27 ± 0.67% | -1.27 ± 0.21% | -0.912 ± 0.44% | -1.5 ± 0.47% | 37.9 ± 0.45% | 56.38 ± 0.14% | 55.58 ± 0.35% | 59.2 ± 1.2% | – | – | – | – | – | – | – | – | – | – |
| COP(=O)(OC)C(O)C(Cl)(Cl)Cl (centres undefined) [Trichlorfon] | 0.0437 ± 1.6% | -1.39 ± 0.081% | -0.758 ± 0.2% | -1.43 ± 0.39% | 19.7 ± 0.21% | 73.1 ± 2.5% | 76.8 ± 2.2% | 76.7 ± 1.5% | – | – | – | – | – | – | – | – | – | – |
| O=C(O)C(Cl)(Cl)Cl [Trichloroacetic acid] | -0.739 ± 0.85% | -2.11 ± 0.056% | -2.765 ± 0.0095% | -2.27 ± 0.54% | -2.74 ± 0.85% | -2.07 ± 0.18% | -1.13 ± 0.15% | 0.84 ± 1.1% | – | – | – | – | – | – | – | – | – | – |
| O=C(Nc1ccc(Cl)cc1)Nc1ccc(Cl)c(Cl)c1 [Triclocarban] | -2.18 ± 0.41% | -1.67 ± 0.93% | -1.81 ± 0.65% | -1.44 ± 1.4% | -1.83 ± 0.3% | -0.606 ± 2.2% | -1.24 ± 0.34% | 0.167 ± 2% | – | – | – | – | – | – | – | – | – | – |
| O=C(O)COc1nc(Cl)c(Cl)cc1Cl [Triclopyr] | -0.728 ± 0.43% | -2.08 ± 0.22% | -1.59 ± 0.14% | -1.77 ± 0.51% | -1.2 ± 0.3% | 0.578 ± 0.15% | 34.7 ± 3.1% | 45.6 ± 2.5% | – | – | – | – | – | – | – | – | – | – |
| Oc1cc(Cl)ccc1Oc1ccc(Cl)cc1Cl [Triclosan] | – | – | – | – | – | – | – | – | – | – | -1.38 ± 0.38% | -2.17 ± 0.73% | -2.07 ± 0.23% | -1.47 ± 0.84% | -2.05 ± 1.2% | -1.6 ± 1.3% | -1.09 ± 1.9% | -1.09 ± 0.31% |
| CCCCCCCCCCCCCN1CC(C)OC(C)C1 (centres undefined) [Tridemorph] | – | – | – | – | – | – | – | – | – | – | -2.04 ± 1.1% | -2.33 ± 0.85% | -1.56 ± 0.26% | -2.46 ± 1% | -1.14 ± 0.89% | -0.844 ± 0.88% | -0.534 ± 0.43% | 71.8 ± 7.5% |
| OCCN(CCO)CCO [Triethanolamine] | -0.32 ± 0.27% | -0.911 ± 0.6% | -1.61 ± 0.09% | -1.26 ± 0.23% | -1.19 ± 1.4% | -0.416 ± 1.2% | -0.346 ± 0.72% | 1.04 ± 0.38% | – | – | – | – | – | – | – | – | – | – |
| CCCCCCCC[Si](OCC)(OCC)OCC [Triethoxyoctylsilane] | -0.684 ± 0.49% | 0.171 ± 0.31% | -0.00576 ± 0.17% | -0.327 ± 0.22% | 0.39 ± 0.57% | 0.433 ± 0.79% | 0.376 ± 0.72% | 1.59 ± 0.21% | – | – | – | – | – | – | – | – | – | – |
| CCOC(=O)CC(O)(CC(=O)OCC)C(=O)OCC [Triethyl citrate] | -0.555 ± 0.32% | -0.568 ± 0.47% | 0.176 ± 0.48% | -0.693 ± 0.16% | -0.115 ± 0.89% | 0.0535 ± 0.21% | -0.467 ± 0.89% | 1.14 ± 0.85% | – | – | – | – | – | – | – | – | – | – |
| CCCCC(CC)C(=O)OCCOCCOCCOC(=O)C(CC)CCCC (centres undefined) [Triethylene glycol bis(2-ethylhexanoate)] | -2.57 ± 0.42% | -3.93 ± 0.075% | -3.45 ± 0.14% | -3.69 ± 0.87% | -3.81 ± 1.2% | -4.01 ± 1.4% | -5.53 ± 4% | -1.89 ± 0.23% | – | – | – | – | – | – | – | – | – | – |
| CC(=O)OCCOCCOCCOC(C)=O [Triethylene glycol diacetate] | -2% | -1.98 ± 0.077% | -1.83 ± 0.78% | -1.55 ± 0.41% | 0.0849 ± 2% | -1.35 ± 0.28% | -0.553 ± 0.033% | 1.55 ± 0.07% | – | – | – | – | – | – | – | – | – | – |
| COCCOCCOCCOC [Triethylene glycol dimethyl ether] | -0.0874 ± 2% | -4.26 ± 1.7% | -4.61 ± 0.24% | -3.35 ± 0.35% | -3.81 ± 0.89% | -3.38 ± 0.75% | -2.47 ± 1.8% | 1.14 ± 1.8% | – | – | – | – | – | – | – | – | – | – |
